The values that follow come from PubChem BioAssay (NCI).

Test systems include 786-0 renal; A498 renal; BT-549 breast; DU-145 prostate; HCC-2998 colon; HS 578T breast; IGROV1 ovarian; KM12 colon; NCI-H226 lung; NCI-H23 lung; OVCAR-5 ovarian; RPMI-8226 leukemia; SF-268 CNS; T-47D breast.
Common to all, as to assay: DTP human tumour cell line panel, 48 h

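Exposure lasted 48 hours, with cells grown in 96-well plates and compounds tested at five concentrations. TGI marks complete inhibition of growth.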

As a reminder, the TGI is the concentration at which net growth stops. As for `COC(=O)/N=[N+](\[O-])C(c1ccc(Cl)cc1)c1ccc(Cl)cc1`, the concentration for total growth inhibition (TGI) is 96.5 µM in the assay with 786-0 renal; more than 100 µM in the assay with A498 renal; more than 100 µM in the assay with BT-549 breast; more than 100 µM with DU-145 prostate; more than 100 µM in the assay on HCC-2998 colon; more than 100 µM in the assay on HS 578T breast. Besides, the TGI in the assay with IGROV1 ovarian was more than 100 µM; in the assay on KM12 colon it was more than 100 µM; in the assay with NCI-H226 lung it was 89.6 µM; in the assay with NCI-H23 lung it was more than 100 µM; in the assay with OVCAR-5 ovarian it was more than 100 µM; in the assay with RPMI-8226 leukemia, 67.3 µM. The concentration for total growth inhibition (TGI) in the assay on SF-268 CNS was more than 100 µM; with T-47D breast, 91.9 µM.

For the molecule `CC(C)C(=O)CC(Sc1ccc(N)cc1)c1ccccc1` (stereo not drawn), the TGI in the assay with 786-0 renal was more than 100 µM; in the assay on A498 renal it was 89.1 µM; with BT-549 breast, 65.6 µM; in the assay with DU-145 prostate it was more than 100 µM; with HCC-2998 colon it was 57.5 µM; with HS 578T breast, 67.6 µM. The TGI in the assay on IGROV1 ovarian is more than 100 µM; in the assay with KM12 colon it was more than 100 µM; in the assay with NCI-H226 lung it was more than 100 µM; in the assay with NCI-H23 lung, 58.2 µM; in the assay on OVCAR-5 ovarian it was more than 100 µM; in the assay with RPMI-8226 leukemia, 63.1 µM. For the same molecule, the TGI in the assay with SF-268 CNS is more than 100 µM; in the assay on T-47D breast, 71.6 µM.

For the molecule `O=S(=O)(O)c1ccc(N=Nc2c(O)ccc3ccccc23)cc1`, the TGI in the assay with 786-0 renal, in the assay with A498 renal, in the assay with BT-549 breast, in the assay with DU-145 prostate, in the assay on HCC-2998 colon and in the assay with HS 578T breast was more than 100 µM throughout. Besides, the TGI with IGROV1 ovarian, in the assay on KM12 colon, with NCI-H226 lung, in the assay on NCI-H23 lung, in the assay on OVCAR-5 ovarian and in the assay on RPMI-8226 leukemia was more than 100 µM in each case. For the same molecule, the TGI in the assay on SF-268 CNS and in the assay on T-47D breast was more than 100 µM in each case.

On to `CC(=O)N1c2ccccc2C2=NN=C(N(C)C)SC21` (stereo not drawn), for which the TGI in the assay on 786-0 renal worked out at 12.5 µM; with A498 renal, 11.7 µM; in the assay on BT-549 breast, 24.2 µM; in the assay with DU-145 prostate, 7.45 µM; in the assay with HCC-2998 colon it was 12.5 µM; in the assay on HS 578T breast, 52.4 µM. Further, the TGI in the assay on KM12 colon was found to be 11.2 µM; in the assay with NCI-H226 lung it was 19.5 µM; in the assay on NCI-H23 lung it was 19.3 µM; in the assay with OVCAR-5 ovarian, 18.1 µM; with RPMI-8226 leukemia, 81.3 µM; with SF-268 CNS it was 16 µM. The molecule further displayed a TGI with T-47D breast of 14.9 µM.

As for `COC(=O)C1=C(O)C(C(=O)OC)[C@]2(O)[C@H](C(=O)OC)[C@H]1C[C@@H](c1ccc(Cl)cc1Cl)[C@H]2C(=O)OC` (stereo partly drawn), the TGI in the assay with 786-0 renal was more than 100 µM; in the assay with A498 renal it was 30.4 µM; in the assay with BT-549 breast it was 66.6 µM; in the assay with DU-145 prostate, 25.7 µM; with HCC-2998 colon it was 21.9 µM; in the assay on HS 578T breast, more than 100 µM. For the same molecule, the concentration for total growth inhibition (TGI) came to 19.3 µM in the assay with IGROV1 ovarian; 32.9 µM in the assay on KM12 colon; 16.3 µM with NCI-H226 lung; 19.1 µM in the assay on NCI-H23 lung; 40.7 µM with OVCAR-5 ovarian; 7.74 µM in the assay on RPMI-8226 leukemia. Besides, the total growth inhibition concentration (TGI) worked out at 38.1 µM in the assay with SF-268 CNS and 96.9 µM with T-47D breast.

As to `CC1(C)C2CC1C(/C=N\OCC(=O)O)=CC2=O` (stereo not drawn), the TGI in the assay with 786-0 renal, with A498 renal, in the assay with BT-549 breast, with DU-145 prostate, with HCC-2998 colon and in the assay with HS 578T breast was more than 100 µM in each case. In addition, the TGI with IGROV1 ovarian, in the assay with KM12 colon, in the assay with NCI-H226 lung, in the assay on NCI-H23 lung, with OVCAR-5 ovarian and in the assay with RPMI-8226 leukemia was more than 100 µM each time. The TGI with SF-268 CNS and with T-47D breast was more than 100 µM throughout.

In the case of `Cc1ccc([N+](=O)[O-])cc1S(=O)(=O)Nc1ccc(C2=NOC(c3ccccc3)C2)cc1` (stereo not drawn), the total growth inhibition concentration (TGI) with 786-0 renal was 35.6 µM; in the assay on A498 renal, 56.8 µM; with BT-549 breast, 51.9 µM; in the assay on DU-145 prostate it was 33.9 µM; in the assay on HCC-2998 colon it was 25.8 µM; with HS 578T breast it was more than 100 µM. The TGI in the assay on IGROV1 ovarian is more than 100 µM; with KM12 colon, 18.5 µM; with NCI-H226 lung, more than 100 µM; in the assay with NCI-H23 lung, more than 100 µM; with OVCAR-5 ovarian, more than 100 µM; in the assay on RPMI-8226 leukemia, 34.6 µM. Also, the TGI is more than 100 µM in the assay on SF-268 CNS and 51.1 µM in the assay with T-47D breast.

Regarding `Clc1ccccc1-c1nn2c(CCCCCCCCc3nnc4sc(-c5ccccc5Cl)nn34)nnc2s1`, the concentration for total growth inhibition (TGI) in the assay on 786-0 renal, in the assay on A498 renal, in the assay on BT-549 breast, in the assay with DU-145 prostate, in the assay on HCC-2998 colon and in the assay on HS 578T breast was more than 100 µM throughout. Further, the concentration for total growth inhibition (TGI) with KM12 colon, in the assay on NCI-H226 lung, in the assay on NCI-H23 lung, with OVCAR-5 ovarian, in the assay with RPMI-8226 leukemia and with SF-268 CNS was more than 100 µM in each case. The molecule further yielded a TGI in the assay on T-47D breast of more than 100 µM.

On to `O=[N+]([O-])/C(C(Cl)=C(Cl)Cl)=C(\Nc1cccc2cccnc12)Sc1ccccc1`, for which the TGI is 49.7 µM in the assay with 786-0 renal; 69.4 µM with A498 renal; 48 µM with BT-549 breast; 78.4 µM in the assay on DU-145 prostate; more than 100 µM with HCC-2998 colon; 38 µM with HS 578T breast. Also, the concentration for total growth inhibition (TGI) in the assay on KM12 colon is 28.6 µM; in the assay with NCI-H226 lung it was 86.6 µM; in the assay with NCI-H23 lung, 37.6 µM; in the assay with OVCAR-5 ovarian, more than 100 µM; in the assay with RPMI-8226 leukemia, more than 100 µM; in the assay with SF-268 CNS, 42 µM. In the assay on T-47D breast, this molecule gave a concentration for total growth inhibition (TGI) of 38.4 µM.

Turning to `CC(C)/C(Cl)=N/OC(NC(=O)Nc1ccc(Cl)c(Cl)c1)(C(F)(F)F)C(F)(F)F`, the total growth inhibition concentration (TGI) came out at 22.2 µM in the assay on 786-0 renal; 34.7 µM in the assay with A498 renal; 25.7 µM in the assay on BT-549 breast; 31.9 µM with DU-145 prostate; 36 µM in the assay on HCC-2998 colon; 99.4 µM in the assay with HS 578T breast. In addition, the TGI turned out to be 35.2 µM in the assay with IGROV1 ovarian; 36.1 µM in the assay on KM12 colon; 42.8 µM in the assay with NCI-H226 lung; 38.2 µM with NCI-H23 lung; 38.4 µM in the assay on OVCAR-5 ovarian; 4.7 µM with RPMI-8226 leukemia. The TGI in the assay with SF-268 CNS came to 39.4 µM; in the assay on T-47D breast, 19.4 µM.

Take `COc1ccc(C[C@H]2NC[C@H](OC(C)=O)[C@H]2OC(C)=O)cc1`: the TGI stood at 1.05 µM in the assay with 786-0 renal; 4.27 µM in the assay on A498 renal; 0.564 µM with BT-549 breast; 0.903 µM in the assay on DU-145 prostate; 0.357 µM with HCC-2998 colon; 0.465 µM in the assay with HS 578T breast. Moreover, the total growth inhibition concentration (TGI) came to 0.674 µM with IGROV1 ovarian; 1.46 µM with KM12 colon; 1.08 µM in the assay with NCI-H226 lung; 0.94 µM in the assay with NCI-H23 lung; 0.679 µM in the assay on OVCAR-5 ovarian; 1.95 µM in the assay on RPMI-8226 leukemia. Also, the TGI in the assay on SF-268 CNS worked out at 0.308 µM; with T-47D breast, 0.7 µM.

For the molecule `CC(SC(=S)N1CCCC1)C(=O)Nc1nnc(-c2ccc(Cl)cc2)o1` (stereo not drawn), the TGI was 32.9 µM with 786-0 renal; more than 100 µM with A498 renal; more than 100 µM in the assay on BT-549 breast; more than 100 µM with DU-145 prostate; more than 100 µM in the assay on HCC-2998 colon; more than 100 µM in the assay with HS 578T breast. The TGI is more than 100 µM in the assay with IGROV1 ovarian; more than 100 µM in the assay on NCI-H226 lung; more than 100 µM in the assay with NCI-H23 lung; more than 100 µM with OVCAR-5 ovarian; 44.8 µM in the assay on RPMI-8226 leukemia; 96.9 µM in the assay with SF-268 CNS. In the assay on T-47D breast, this molecule came in with a TGI of more than 100 µM.

Regarding `O=C1c2scc(-c3ccc(F)cc3)c2-n2cccc21`, the concentration for total growth inhibition (TGI) with 786-0 renal was 68.6 µM; with A498 renal, 3.1 µM; in the assay on BT-549 breast it was 79.7 µM; in the assay with DU-145 prostate, more than 100 µM; in the assay on HCC-2998 colon, 91.1 µM; in the assay with HS 578T breast it was more than 100 µM. The TGI in the assay with IGROV1 ovarian, in the assay with KM12 colon, with NCI-H226 lung, with OVCAR-5 ovarian, in the assay on RPMI-8226 leukemia and in the assay on SF-268 CNS was more than 100 µM in each case. In the assay on T-47D breast, this molecule gave a TGI of more than 100 µM.

On to `COc1ccccc1-c1n[nH]c(-c2ccccc2O)n1`, for which the TGI in the assay with 786-0 renal, with A498 renal, with BT-549 breast, in the assay on DU-145 prostate, with HCC-2998 colon and in the assay on HS 578T breast was more than 100 µM each time. In addition, the TGI with KM12 colon, with NCI-H226 lung, in the assay on NCI-H23 lung, with OVCAR-5 ovarian, in the assay on RPMI-8226 leukemia and in the assay with SF-268 CNS was more than 100 µM throughout. Besides, the TGI with T-47D breast was more than 100 µM.

Regarding `CN(C)Cc1cc(N=Nc2c(Cl)cccc2Cl)ccc1O`, the TGI in the assay on 786-0 renal, in the assay on A498 renal, in the assay with BT-549 breast, in the assay with DU-145 prostate, in the assay with HCC-2998 colon and in the assay with HS 578T breast was more than 100 µM throughout. Moreover, the concentration for total growth inhibition (TGI) with IGROV1 ovarian, with KM12 colon, in the assay on NCI-H226 lung, in the assay with NCI-H23 lung, with RPMI-8226 leukemia and with SF-268 CNS was more than 100 µM in each case. This molecule also had a TGI in the assay on T-47D breast of more than 100 µM.
